Measured values: ChEMBL document CHEMBL5338747, “Discovery of Quaternized Pyridine-Thiazole-Pleuromutilin Derivatives with Broad-Spectrum Antibacterial and Potent Anti-MRSA Activity” (J Med Chem, 2023)
The source made the active and inactive calls. The calls are words filed in the database; no cut-off is given here.

Key:
[1] = test system: Staphylococcus epidermidis; assay: Antibacterial activity against methicillin-resistant Staphylococcus epidermidis ATCC 51625 assessed as inhibition of bacterial growth incubated for 24 hrs by broth microdilution method; format: functional
Escherichia coli [2] = assay: Antibacterial activity against Escherichia coli CMCC 44103 assessed as inhibition of bacterial growth incubated for 24 hrs by broth microdilution method; format: functional
Staphylococcus aureus [3] = assay: Antibacterial activity against methicillin-resistant Staphylococcus aureus 171 assessed as inhibition of bacterial growth incubated for 24 hrs by broth microdilution method; format: functional
Staphylococcus aureus [4] = assay: Antibacterial activity against methicillin-resistant Staphylococcus aureus 222 assessed as inhibition of bacterial growth incubated for 24 hrs by broth microdilution method; format: functional
Klebsiella pneumoniae = assay: Antibacterial activity against multidrug-resistant Klebsiella pneumoniae 893 assessed as inhibition of bacterial growth incubated for 24 hrs by broth microdilution method; format: functional
Acinetobacter baumannii = assay: Antibacterial activity against carbapenem-resistant Acinetobacter baumannii 882 assessed as inhibition of bacterial growth incubated for 24 hrs by broth microdilution method; format: functional
[5] = test system: Mesomycoplasma hyopneumoniae; assay: Anti-mycoplasma activity against Mycoplasma hyopneumoniae J NCTC10110 assessed as inhibition of mycoplasma growth measured after 7 days by broth microdilution method; format: functional; conditions: J NCTC10110, 168 h, time 7 day
[6] = test system: Mesomycoplasma hyopneumoniae; assay: Anti-mycoplasma activity against Mycoplasma hyopneumoniae LH assessed as inhibition of mycoplasma growth measured after 7 days by broth microdilution method; format: functional; conditions: 168 h, time 7 day
Mesomycoplasma hyorhinis = assay: Anti-mycoplasma activity against Mycoplasma hyorhinis BTS-7 NCTC10130 assessed as inhibition of mycoplasma growth measured after 7 days by broth microdilution method; format: functional; conditions: BTS-7 NCTC10130, 168 h, time 7 day
Mycoplasmopsis synoviae = assay: Anti-mycoplasma activity against Mycoplasma synoviae WVU1853 NCTC10124 assessed as inhibition of mycoplasma growth measured after 7 days by broth microdilution method; format: functional; conditions: WVU1853 NCTC10124, 168 h, time 7 day
Staphylococcus aureus [7] = assay: Bactericidal activity against methicillin-resistant Staphylococcus aureus ATCC 33591 assessed as reduction in bacterial colonies formation at MIC incubated for 24 hrs in MHB followed by culturing on agar plate for 24 hrs by time-kill kinetics based analysis; format: functional; conditions: time 48 hrs
Escherichia coli [8] = assay: Bactericidal activity against Escherichia coli ATCC 25922 assessed as reduction in bacterial colonies formation at MIC incubated for 24 hrs in MHB followed by culturing on agar plate for 24 hrs by time-kill kinetics based analysis; format: functional; conditions: time 48 hrs
Staphylococcus aureus [9] = assay: Bactericidal activity against methicillin-resistant Staphylococcus aureus ATCC 33591 assessed as reduction in bacterial colonies formation at 2XMIC incubated for 12 hrs in MHB followed by culturing on agar plate for 24 hrs by time-kill kinetics based analysis; format: functional; set-up: scale not given: the % may be the effect or the level left; conditions: time 36 hrs
Escherichia coli [10] = assay: Bactericidal activity against Escherichia coli ATCC 25922 assessed as reduction in bacterial colonies formation at 4XMIC incubated for 4 hrs in MHB followed by culturing on agar plate for 24 hrs by time-kill kinetics based analysis; format: functional; set-up: scale not given: the % may be the effect or the level left; conditions: time 28 hrs
[11] = Cytotoxicity against human A549 cells assessed as reduction in cell viability measured after 48 hrs by CCK8 assay; format: toxicity, cell-based
Staphylococcus aureus [12] = assay: Disruption of biofilm formation in methicillin-resistant Staphylococcus aureus ATCC 33591 assessed as inhibition of biofilm formation at MIC measured after 24 hrs by crystal violet staining based analysis; format: functional
Escherichia coli [13] = assay: Disruption of biofilm formation in Escherichia coli ATCC 25922 assessed as inhibition of biofilm formation at MIC measured after 24 hrs by crystal violet staining based analysis; format: functional
Escherichia coli [14] = assay: Disruption of biofilm formation in Escherichia coli ATCC 25922 assessed as inhibition of biofilm formation at 4XMIC measured after 24 hrs by crystal violet staining based analysis; format: functional
Cell membrane [15] = assay: Disruption of bacterial cell membrane in methicillin-resistant Staphylococcus aureus ATCC 33591 assessed as increase in fluorescence intensity by DiBAC4(3) dye based fluorescence analysis; format: subcellular
Cell membrane [16] = assay: Disruption of bacterial cell membrane in Escherichia coli ATCC 25922 assessed as increase in fluorescence intensity by DiBAC4(3) dye based fluorescence analysis; format: subcellular
Cell membrane [17] = assay: Disruption of bacterial cell membrane in Escherichia coli ATCC 25922 assessed as increase in fluorescence intensity at 8XMIC measured within 3 mins by DiBAC4(3) dye based fluorescence analysis relative to control
Cell membrane [18] = assay: Disruption of bacterial cell membrane in methicillin-resistant Staphylococcus aureus ATCC 33591 assessed as increase in red fluorescence intensity at MIC incubated for 2 hrs by MycoLightGreen1198/PI staining based confocal laser scanning microscopy; format: subcellular
Cell membrane [19] = assay: Disruption of bacterial cell membrane in Escherichia coli ATCC 25922 assessed as increase in number of surface folds and atrophy at MIC incubated for 4 hrs by FESEM analysis
Staphylococcus aureus [20] = assay: Antibacterial activity against methicillin-resistant Staphylococcus aureus ATCC 33591 infected in ip dosed Kunming mouse assessed as protection against bacterial infection administered for 7 days starting from 1 hr post-infection; format: functional
Staphylococcus aureus [21] = assay: Antibacterial activity against methicillin-resistant Staphylococcus aureus ATCC 33591 infected in Kunming mouse assessed as animal survival rate at 3 mg/kg, ip for 7 days starting from 1 hr post-infection; format: functional; conditions: ATCC 33591, 168 h, time 7 day
Staphylococcus aureus [22] = assay: Antibacterial activity against methicillin-resistant Staphylococcus aureus ATCC 33591 infected in Kunming mouse assessed as animal survival rate at 5 mg/kg, ip for 7 days starting from 1 hr post-infection; format: functional; conditions: ATCC 33591, 168 h, time 7 day
Staphylococcus aureus [23] = assay: Antibacterial activity against methicillin-resistant Staphylococcus aureus ATCC 33591 infected in Kunming mouse assessed as reduction in inflammatory cell infiltration in lungs at 3 to 10 mg/kg, ip for 2 days starting from 1 hr post-infection by hematoxylin-eosin staining based analysis; format: functional, organism-based; conditions: dose 3-10 mg/kg, time 2.0 day
Staphylococcus aureus [24] = assay: Antibacterial activity against methicillin-resistant Staphylococcus aureus ATCC 33591 infected in Kunming mouse assessed as reduction in number of inflammatory cells in liver at 10 mg/kg, ip for 2 days starting from 1 hr post-infection by hematoxylin-eosin staining based analysis; format: functional, organism-based; conditions: time 2.0 day
[25] = Metabolic stability in Sprague-Dawley rat assessed as parent compound remaining at 3 mg/kg, po measured after 10 mins by LC-MS analysis; format: ADME, organism-based; conditions: in vivo, read-out: Stability
[26] = Cmax in Sprague-Dawley rat at 1 mg/kg, iv by LC-MS analysis; format: ADME, organism-based; set-up: dose 1 mg/kg, route iv; conditions: in vivo
[27] = Half-life in Sprague-Dawley rat at 1 mg/kg, iv by LC-MS analysis; format: ADME, organism-based; conditions: in vivo
[28] = AUC(0 to t) in Sprague-Dawley rat at 1 mg/kg, iv by LC-MS analysis; format: ADME, organism-based; set-up: dose 1 mg/kg, route iv; conditions: in vivo
[29] = Clearance in Sprague-Dawley rat at 1 mg/kg, iv by LC-MS analysis; format: ADME, organism-based; conditions: in vivo
Staphylococcus aureus [30] = assay: Potency index, ratio of moxifloxacin MIC to test compound MIC for antibacterial activity against methicillin-resistant Staphylococcus aureus 171; format: functional
Cell membrane [31] = assay: Disruption of bacterial cell membrane in methicillin-resistant Staphylococcus aureus ATCC 33591 incubated for 4 hrs by FESEM analysis; format: subcellular
Cell membrane [32] = assay: Disruption of bacterial cell membrane in Escherichia coli ATCC 25922 incubated for 4 hrs by FESEM analysis; format: subcellular

C=C[C@]1(C)C[C@@H](OC(=O)CSc2nc(-c3cc[n+](Cc4ccc(C)cc4)cc3)cs2)[C@]2(C)[C@H](C)CC[C@]3(CCC(=O)[C@H]32)[C@@H](C)[C@@H]1O.[Br-]
MIC [1]: 1 µg/mL
MIC (Escherichia coli [2]): 0.5 µg/mL
MIC (Staphylococcus aureus [3]): 4 µg/mL
MIC (Staphylococcus aureus [4]): 1 µg/mL
MIC (Klebsiella pneumoniae): 16 µg/mL
MIC (Acinetobacter baumannii): 8 µg/mL
MIC [5]: 0.004 µg/mL
MIC [6]: 0.002 µg/mL
MIC (Mesomycoplasma hyorhinis): 0.008 µg/mL
MIC (Mycoplasmopsis synoviae): 0.015 µg/mL
Activity (Staphylococcus aureus [7]): 4.5 log10CFU/ml
Activity (Escherichia coli [8]): 6.98 log10CFU/ml
Activity (Staphylococcus aureus [9]): 100%
Activity (Escherichia coli [10]): 100%
CC50 at 48 h [11]: > 100 µM
inhibition (INH) (Staphylococcus aureus [12]): 57.97%
inhibition (INH) (Escherichia coli [13]): 59.04%
inhibition (INH) (Escherichia coli [14]): 84.02%
Activity (Cell membrane [15]): Dose-Dependent Effect
Activity (Cell membrane [16]): Dose-Dependent Effect
fold change (FC) (Cell membrane [17]): 6
Activity (Cell membrane [18]): Active
Activity (Cell membrane [19]): Active
ED50 (Staphylococcus aureus [20]; ATCC 33591, 168 h, time 7 day): 4.94 mg/kg
Activity (Staphylococcus aureus [20]; time 7.0 day): Dose-Dependent Effect
survival at 3 mg/kg (Staphylococcus aureus [21]): 42.9%
survival at 5 mg/kg (Staphylococcus aureus [22]): 57.1%
Activity (Staphylococcus aureus [23]): Active
Activity (Staphylococcus aureus [24]): Active
remaining at 10 min [25]: 0%
Cmax [26]: 9670 ng/mL
half-life [27]: 43.8 min
AUC(0-t) [28]: 539 ng·h/mL
clearance [29]: 31.7 mL/min/kg
Ratio (Staphylococcus aureus [30]): 8
Activity (Cell membrane [31]): Dose-Dependent Effect
Activity (Cell membrane [32]): Dose-Dependent Effect
